According to patent publication US20210045385A1, “PYRIDAZINONE-SUBSTITUTED KETOXIMES AS HERBICIDES” (FMC Corporation, priority 2018, published 2021):

Columns and labels:
Assay type in all cases: in vivo
[1] = system: blackgrass (Alopecurus myosuroides); assay: Test A postemergence, visual plant response rating; conditions: for Blackgrass plant response rating (0 to 100 scale): 500 g ai/ha, postemergence, 0 is no effect, 100 is complete control; for Blackgrass plant response rating: Postemergence, 125 g ai/ha, 0 to 100 scale (0 no effect, 100 complete control)
Summary of the method: (§1)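 Ratings use a 0–100 visual scale (100 = complete control) against untreated controls, scored about 10 days after greenhouse treatment. Test chemicals were formulated in surfactant-containing non-phytotoxic solvent and applied either as soil spray after planting (preemergence) or onto one- to two-leaf, 2–10 cm plants (postemergence).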

[2] = system: Italian ryegrass (Lolium multiflorum); assay: Test A postemergence, visual plant response rating; conditions: for Ryegrass, Italian plant response rating (0 to 100 scale): 500 g ai/ha, postemergence, 0 is no effect, 100 is complete control; for Ryegrass, Italian plant response rating: Postemergence, 125 g ai/ha, 0 to 100 scale (0 no effect, 100 complete control)
Summary of the method: as §1

[3] = system: foxtail, giant (giant foxtail, Setaria faberii); assay: Test A postemergence, visual plant response rating; conditions: for Foxtail, Giant plant response rating (0 to 100 scale): 500 g ai/ha, postemergence, 0 is no effect, 100 is complete control; for Foxtail, Giant plant response rating: Postemergence, 125 g ai/ha, 0 to 100 scale (0 no effect, 100 complete control)
Summary of the method: as §1

[4] = system: pigweed (Amaranthus retroflexus); assay: Test A postemergence, visual plant response rating; conditions: for Pigweed plant response rating (0 to 100 scale): 500 g ai/ha, postemergence, 0 is no effect, 100 is complete control; for Pigweed plant response rating: Postemergence, 125 g ai/ha, 0 to 100 scale (0 no effect, 100 complete control)
Summary of the method: as §1

[5] = system: galium (catchweed bedstraw, Galium aparine); assay: Test A postemergence, visual plant response rating; conditions: for Galium plant response rating (0 to 100 scale): 500 g ai/ha, postemergence, 0 is no effect, 100 is complete control; for Galium plant response rating: Postemergence, 125 g ai/ha, 0 to 100 scale (0 no effect, 100 complete control)
Summary of the method: as §1

corn (Zea mays) = assay: Test A postemergence, visual plant response rating; conditions: for Corn plant response rating (0 to 100 scale): 500 g ai/ha, postemergence, 0 is no effect, 100 is complete control; for Corn plant response rating: Postemergence, 125 g ai/ha, 0 to 100 scale (0 no effect, 100 complete control)
Summary of the method: as §1

[6] = system: wheat (Triticum aestivum); assay: Test A postemergence, visual plant response rating; conditions: for Wheat plant response rating (0 to 100 scale): 500 g ai/ha, postemergence, 0 is no effect, 100 is complete control; for Wheat plant response rating: Postemergence, 125 g ai/ha, 0 to 100 scale (0 no effect, 100 complete control)
Summary of the method: as §1

[7] = system: barnyardgrass (Echinochloa crus-galli); assay: Test A postemergence, visual plant response rating; conditions: for Barnyardgrass plant response rating (0 to 100 scale): 500 g ai/ha, postemergence, 0 is no effect, 100 is complete control; for Barnyardgrass plant response rating: Postemergence, 125 g ai/ha, 0 to 100 scale (0 no effect, 100 complete control)
Summary of the method: as §1

[8] = system: ragweed (common ragweed, Ambrosia elatior); assay: Test A postemergence, visual plant response rating; conditions: for Ragweed plant response rating (0 to 100 scale): 500 g ai/ha, postemergence, 0 is no effect, 100 is complete control; for Ragweed plant response rating: Postemergence, 125 g ai/ha, 0 to 100 scale (0 no effect, 100 complete control)
Summary of the method: as §1

kochia (Kochia scoparia) [9] = assay: Test A postemergence, visual plant response rating; conditions: for Kochia plant response rating (0 to 100 scale): 500 g ai/ha, postemergence, 0 is no effect, 100 is complete control; for Kochia plant response rating: Postemergence, 125 g ai/ha, 0 to 100 scale (0 no effect, 100 complete control)
Summary of the method: as §1

[10] = system: Italian ryegrass (Lolium multiflorum); assay: Test A preemergence, visual plant response rating; conditions: for Ryegrass, Italian plant response rating: 125 g ai/ha, preemergence, 0 to 100 scale, 0 no effect, 100 complete control; for Ryegrass, Italian plant response rating (0 to 100 scale): 500 g ai/ha Preemergence, approx. 10 days
Summary of the method: as §1

[11] = system: foxtail, giant (giant foxtail, Setaria faberii); assay: Test A preemergence, visual plant response rating; conditions: for Foxtail, Giant plant response rating: 125 g ai/ha, preemergence, 0 to 100 scale, 0 no effect, 100 complete control; for Foxtail, Giant plant response rating (0 to 100 scale): 500 g ai/ha Preemergence, approx. 10 days
Summary of the method: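 Preemergence: seeds in loam/sand blend given directed soil spray of compound in non-phytotoxic solvent with surfactant. Postemergence: plants 2–10 cm, one- to two-leaf stage, sprayed with same formulation. Visual injury rated vs untreated controls after ~10 days in greenhouse, 0 (no effect) to 100 (complete control).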

[12] = system: pigweed (Amaranthus retroflexus); assay: Test A preemergence, visual plant response rating; conditions: for Pigweed plant response rating: 125 g ai/ha, preemergence, 0 to 100 scale, 0 no effect, 100 complete control; for Pigweed plant response rating (0 to 100 scale): 500 g ai/ha Preemergence, approx. 10 days
Summary of the method: as §1

[13] = system: barnyardgrass (Echinochloa crus-galli); assay: Test A preemergence, visual plant response rating; conditions: for Barnyardgrass plant response rating: 125 g ai/ha, preemergence, 0 to 100 scale, 0 no effect, 100 complete control; for Barnyardgrass plant response rating (0 to 100 scale): 500 g ai/ha Preemergence, approx. 10 days
Summary of the method: as §1

[14] = system: ragweed (common ragweed, Ambrosia elatior); assay: Test A preemergence, visual plant response rating; conditions: for Ragweed plant response rating: 125 g ai/ha, preemergence, 0 to 100 scale, 0 no effect, 100 complete control; for Ragweed plant response rating (0 to 100 scale): 500 g ai/ha Preemergence, approx. 10 days
Summary of the method: as §1

kochia (Kochia scoparia) [15] = assay: Test A preemergence, visual plant response rating; conditions: for Kochia plant response rating: 125 g ai/ha, preemergence, 0 to 100 scale, 0 no effect, 100 complete control; for Kochia plant response rating (0 to 100 scale): 500 g ai/ha Preemergence, approx. 10 days
Summary of the method: as §1

[16] = system: ducksalad (Heteranhera limosa); assay: Test B flooded paddy test, visual plant response rating; conditions: 250 g ai/ha, Flood, applied to paddy water, 2-leaf stage, evaluated after 13 to 15 days
Summary of the method: (§2)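 Seedlings at 2 leaves; compound into paddy water (3 cm flood, maintained); 13–15 d greenhouse; visual score relative to controls.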

[17] = system: barnyardgrass (Echinochloa crus-galli); assay: as above; conditions: 250 g ai/ha, Flood, applied to paddy water, 2-leaf stage, evaluated after 13 to 15 days
Summary of the method: as §2

[18] = system: sedge, umbrella (small-flower umbrella sedge, Cyperus difformis); assay: as above; conditions: 250 g ai/ha, Flood, applied to paddy water, 2-leaf stage, evaluated after 13 to 15 days
Summary of the method: as §2

rice (Oryza sativa) = assay: as above; conditions: 250 g ai/ha, Flood, applied to paddy water, 2-leaf stage, evaluated after 13 to 15 days
Summary of the method: as §2

SMILES	Blackgrass plant response rating (0 to 100 scale) [1]	Blackgrass plant response rating [1]	Ryegrass, Italian plant response rating (0 to 100 scale) [2]	Ryegrass, Italian plant response rating [2]	Foxtail, Giant plant response rating (0 to 100 scale) [3]	Foxtail, Giant plant response rating [3]	Pigweed plant response rating (0 to 100 scale) [4]	Pigweed plant response rating [4]	Galium plant response rating (0 to 100 scale) [5]	Galium plant response rating [5]	Corn plant response rating (0 to 100 scale) (corn (Zea mays))	Corn plant response rating (corn (Zea mays))	Wheat plant response rating (0 to 100 scale) [6]	Wheat plant response rating [6]	Barnyardgrass plant response rating (0 to 100 scale) [7]	Barnyardgrass plant response rating [7]	Ragweed plant response rating (0 to 100 scale) [8]	Ragweed plant response rating [8]	Kochia plant response rating (0 to 100 scale) (kochia (Kochia scoparia) [9])	Kochia plant response rating (kochia (Kochia scoparia) [9])	further results
CON=C(c1c(O)c(C)nn(C)c1=O)c1cccc2ccoc12 [Compound 61]	20	10	70	10	20	0	80	50	80	60	0	0	40	30	20	0	30	10	50	30	Ryegrass, Italian plant response rating [10]: 30; Ryegrass, Italian plant response rating (0 to 100 scale) [10]: 80; Foxtail, Giant plant response rating [11]: 0; Foxtail, Giant plant response rating (0 to 100 scale) [11]: 10; Pigweed plant response rating [12]: 0; Pigweed plant response rating (0 to 100 scale) [12]: 0; Barnyardgrass plant response rating [13]: 0; Barnyardgrass plant response rating (0 to 100 scale) [13]: 0; Ragweed plant response rating [14]: 0; Ragweed plant response rating (0 to 100 scale) [14]: 70; Kochia plant response rating (kochia (Kochia scoparia) [15]): 0; Kochia plant response rating (0 to 100 scale) (kochia (Kochia scoparia) [15]): 0; Plant response rating, Ducksalad (0 to 100 scale, 0 is no effect, 100 is complete control) [16]: 0; Plant response rating, Barnyardgrass (0 to 100 scale, 0 is no effect, 100 is complete control) [17]: 0; Plant response rating, Sedge, Umbrella (0 to 100 scale, 0 is no effect, 100 is complete control) [18]: 0; Plant response rating, Rice (0 to 100 scale, 0 is no effect, 100 is complete control) (rice (Oryza sativa)): 0
CCCc1ccccc1/C(=N\OC)c1c(O)c(C)nn(C)c1=O [Compound 92]	70	20	60	50	60	50	80	60	70	70	10	0	0	0	40	20	70	60	60	30	Ryegrass, Italian plant response rating [10]: 40; Ryegrass, Italian plant response rating (0 to 100 scale) [10]: 80; Foxtail, Giant plant response rating [11]: 70; Foxtail, Giant plant response rating (0 to 100 scale) [11]: 80; Pigweed plant response rating [12]: 30; Pigweed plant response rating (0 to 100 scale) [12]: 90; Barnyardgrass plant response rating [13]: 30; Barnyardgrass plant response rating (0 to 100 scale) [13]: 60; Ragweed plant response rating [14]: 20; Ragweed plant response rating (0 to 100 scale) [14]: 30; Kochia plant response rating (kochia (Kochia scoparia) [15]): 0; Kochia plant response rating (0 to 100 scale) (kochia (Kochia scoparia) [15]): 10; Plant response rating, Ducksalad (0 to 100 scale, 0 is no effect, 100 is complete control) [16]: 0; Plant response rating, Barnyardgrass (0 to 100 scale, 0 is no effect, 100 is complete control) [17]: 0; Plant response rating, Sedge, Umbrella (0 to 100 scale, 0 is no effect, 100 is complete control) [18]: 0; Plant response rating, Rice (0 to 100 scale, 0 is no effect, 100 is complete control) (rice (Oryza sativa)): 0
CON=C(c1c(O)c(C)nn(C)c1=O)c1cccc2cc(Br)ccc12 [Compound 100]	90	90	90	80	80	70	90	90	90	90	40	10	50	0	70	30	100	90	70	70	Ryegrass, Italian plant response rating [10]: 50; Ryegrass, Italian plant response rating (0 to 100 scale) [10]: 100; Foxtail, Giant plant response rating [11]: 60; Foxtail, Giant plant response rating (0 to 100 scale) [11]: 100; Pigweed plant response rating [12]: 90; Pigweed plant response rating (0 to 100 scale) [12]: 100; Barnyardgrass plant response rating [13]: 50; Barnyardgrass plant response rating (0 to 100 scale) [13]: 80; Ragweed plant response rating [14]: 100; Ragweed plant response rating (0 to 100 scale) [14]: 100; Kochia plant response rating (kochia (Kochia scoparia) [15]): 10; Kochia plant response rating (0 to 100 scale) (kochia (Kochia scoparia) [15]): 60; Plant response rating, Ducksalad (0 to 100 scale, 0 is no effect, 100 is complete control) [16]: 0; Plant response rating, Barnyardgrass (0 to 100 scale, 0 is no effect, 100 is complete control) [17]: 0; Plant response rating, Sedge, Umbrella (0 to 100 scale, 0 is no effect, 100 is complete control) [18]: 0; Plant response rating, Rice (0 to 100 scale, 0 is no effect, 100 is complete control) (rice (Oryza sativa)): 0
